# Measurements reported in patent US9078890B2, “Use of koumine and its homologues in preparation of medicament for treatment of autoimmune diseases of involved bones and joints” (priority 2011, dated 2015).
# Marks after values point to notes of the source that are not given here.
# Tests used:
# adjuvant arthritis mice [1] = assay: Adjuvant arthritis mice: hyperalgesia (phlogogenic paw thermal withdrawal latency); assay type: in vivo, Kunming mice
# Experimental: (§1) BCG was inactivated in water bath at 80° C., and fully emulsified along with complete Freund's adjuvant to form complete Freund's adjuvant emulsion containing 5 mg/ml BCG, preserved at 4° C., and shake well before use. The Kunming mice were divided into a modeling group and a false modeling group. According to the method recited in the literature [Rasool M, Sabina E P, Lavanya B. Anti-inflammatory effect of Spirulina fusiformis on adjuvant-induced arthritis in mice. Biol Pharm Bull. 2006, 29(12):2483-7], for the modeling group, the model was prepared by intradermal injection of 20 ul the emulsion under the plantar surface of right paws after the mice was narcotized; for the false modeling group, the emulsion was replaced with physiological saline. For the modeling group, the animals were screened on Day 8 after injection: the mice with the injected paw thickness increased >0.5 mm and thermal hyperalgesia occurred (paw thermal withdrawal latency <8 second) were selected as experimental subjects. The selected mice were divided into 5 groups randomly: low, middle, high dose treatment group (0.8, 4, 20 mg/kg); indomethacin positive control group (10 mg/kg); negative control group (physiological saline), each comprising 12 animals. Day 8 after inflammation, intragastric administration was carried out on each group to give corresponding intervention, one time per day for 10 days continuously.
# 30 min after intragastric administration, the phlogogenic paw thermal withdrawal latency of the mice in each group was determined by photo-thermal dolorimeter to reflect animals' hyperalgesia status.
# adjuvant arthritis mice [2] = assay: Adjuvant arthritis mice: joint pathology damage (HE staining); assay type: in vivo, Kunming mice; details: koumine 0.8, 4, 20 mg/kg intragastric; Day 19; dose dependent
# Experimental: as §1, with “Day 8 after inflammation, intragastric administration was carried out on each group to give corresponding intervention, one time per day for 10 days continuously.” left out
# [3] = system: type II collagen-induced arthritis rat; assay: Type II collagen-induced arthritis rat: condition and body weight; assay type: in vivo, Wistar rat; details: for Body weight before intervention: from Day 21 after modeling for 10 days
# Experimental: (§2) Under aseptic conditions, 10 mg chicken type II collagen protein was fully mixed with 5 ml 10 mM glacial acetic acid solution, and stirred overnight in refrigerator at 4° C. to fully dissolve it. It was mixed with complete Freund's adjuvant in equal volume in ice bath to fully emulsify into an emulsion with a collagen concentration of 1 mg/ml.
# (§3) Wistar rats are divided into a modeling group and a false modeling group. After the modeling group rats were narcotized with intraperitoneal injection of pentobarbital, the above emulsion was injected intracutaneously at 3 to 4 positions at back, tail root or the like, 0.3 ml for each, an primary immunity was carried out. After 7 days, a secondary immunity was carried out, the emulsifying agent complete Freund's adjuvant of initial immunity was replaced with incomplete Freund's adjuvant, 0.1 ml the emulsion was injected under sevoflurane inhalation anesthesia wherein the injection position is different from the last time. In false modeling group, the emulsion was replaced with solvent glacial acetic acid solution.
# Successfully modeled rat in the modeling group were randomly divide into 5 groups: low, middle, high-dose koumine treatment group, positive control group, negative control group, 10 rats for each group. Beginning from Day 21 after modeling, corresponding intervention was carried out as following in 10 days continuously: 0.6, 3, 15 mg/kg koumine were intragastrically administrated to the low, middle, high-dose koumine treatment group respectively, 1 time every day; 1 mg/kg amethopterin was administrated to the positive control group, 1 time every 3 days, equal volume of physiological saline was administrated for the remained days; equal volume of physiological saline was administrated to the negative control group.
# [4] = system: type II collagen-induced arthritis rat; assay: Type II collagen-induced arthritis rat: paw swelling degree and arthritis index; assay type: in vivo, Wistar rat; details: koumine 0.6, 3, 15 mg/kg intragastric; Day 5, Day 10 of intervention; dose dependent
# Experimental: as §2, §3
# (§4) Successfully modeled rat in the modeling group were randomly divide into 5 groups: low, middle, high-dose koumine treatment group, positive control group, negative control group, 10 rats for each group. […]
# [5] = system: type II collagen-induced arthritis rat; assay: Type II collagen-induced arthritis rat: joint pathological change, X-ray; assay type: in vivo, Wistar rat; details: high dose and middle dose of koumine (15 and 3 mg/kg); 9 days after intervention
# Experimental: as §2, §3, §4
# [6] = system: type II collagen-induced arthritis rat; assay: Type II collagen-induced arthritis rat: joint pathological change, HE staining and pathological score; assay type: in vivo, Wistar rat; details: koumine 0.6, 3, 15 mg/kg intragastric; 10 days after intervention
# Experimental: as §2
# as §3, with “solution. […]” for “solution.”
# The rats of each group were killed 10 days after intervention, the ankle joints of left hind limbs were picked off to conduct HE staining, and the pathological change was observed and scored. […]
# [7] = koumine 0.8 mg/kg intragastric once daily from Day 8
# [8] = koumine 4 mg/kg intragastric once daily from Day 8
# [9] = koumine 20 mg/kg intragastric once daily from Day 8
# [10] = koumine 0.6 mg/kg intragastric once daily from Day 21
# [11] = koumine 3 mg/kg intragastric once daily from Day 21
# [12] = koumine 15 mg/kg intragastric once daily from Day 21
structure (smiles),measurement,setting,value
C=CC12CN(C)C3CC14C(=Nc1ccccc14)C1CC2C3CO1 (centres unmarked) [Koumine],"Thermal stimulus withdrawal latency, Before intervention",adjuvant arthritis mice [1]; koumine 0.8 mg/kg intragastric once daily for 10 days from Day 8 after inflammation,14.1 ± 1.1 s
same,"Thermal stimulus withdrawal latency, Intervention Day 4",adjuvant arthritis mice [1]; [7],5.9 ± 1.3^★★ second
same,"Thermal stimulus withdrawal latency, Intervention Day 8",adjuvant arthritis mice [1]; [7],4.9 ± 1.1^★★ second
same,"Thermal stimulus withdrawal latency, Intervention Day 12",adjuvant arthritis mice [1]; [7],4.9 ± 1.0*^★ second
same,"Thermal stimulus withdrawal latency, Intervention Day 16",adjuvant arthritis mice [1]; [7],5.9 ± 1.0**^★ second
same,"Thermal stimulus withdrawal latency, Intervention Day 18",adjuvant arthritis mice [1]; [7],6.1 ± 1.2**^★★ second
same,"Thermal stimulus withdrawal latency, Before intervention",adjuvant arthritis mice [1]; koumine 4 mg/kg intragastric once daily for 10 days from Day 8 after inflammation,13.6 ± 1.1 s
same,"Thermal stimulus withdrawal latency, Intervention Day 4",adjuvant arthritis mice [1]; [8],5.8 ± 1.5^★★ second
same,"Thermal stimulus withdrawal latency, Intervention Day 8",adjuvant arthritis mice [1]; [8],4.3 ± 0.8 s
same,"Thermal stimulus withdrawal latency, Intervention Day 12",adjuvant arthritis mice [1]; [8],6.7 ± 1.9**^★ second
same,"Thermal stimulus withdrawal latency, Intervention Day 16",adjuvant arthritis mice [1]; [8],7.8 ± 1.9**^★ second
same,"Thermal stimulus withdrawal latency, Intervention Day 18",adjuvant arthritis mice [1]; [8],8.4 ± 1.8**^★★ second
same,"Thermal stimulus withdrawal latency, Before intervention",adjuvant arthritis mice [1]; koumine 20 mg/kg intragastric once daily for 10 days from Day 8 after inflammation,13.9 ± 1.1 s
same,"Thermal stimulus withdrawal latency, Intervention Day 4",adjuvant arthritis mice [1]; [9],6.1 ± 1.4^★★ second
same,"Thermal stimulus withdrawal latency, Intervention Day 8",adjuvant arthritis mice [1]; [9],4.7 ± 1.5^★★ second
same,"Thermal stimulus withdrawal latency, Intervention Day 12",adjuvant arthritis mice [1]; [9],9.2 ± 1.2**^★ second
same,"Thermal stimulus withdrawal latency, Intervention Day 16",adjuvant arthritis mice [1]; [9],10.7 ± 1.2**^★★ second
same,"Thermal stimulus withdrawal latency, Intervention Day 18",adjuvant arthritis mice [1]; [9],10.8 ± 1.1**^★★ second
same,Effect on thermal stimulus withdrawal latency (summary of Table 1),"adjuvant arthritis mice [1]; koumine 0.8, 4, 20 mg/kg intragastric, dose-effect and time-effect relationships",can significantly extend the thermal stimulus withdrawal latency
same,"Effect on joint pathology damage, HE staining (FIG. 3)",adjuvant arthritis mice [2],"can improve the inflammatory cell infiltration, synovial hyperplasia, bone destruction"
same,"Body weight after intervention, Day 7",[3]; [10],154.6 ± 7.20 g
same,"Body weight after intervention, Day 14",[3]; [10],173.1 ± 7.93 g
same,"Body weight after intervention, Day 21",[3]; [10],194.1 ± 16.67 g
same,"Body weight after intervention, Day 31",[3]; [10],235.8 ± 5.00 g
same,Body weight before intervention,[3]; koumine 0.6 mg/kg intragastric once daily,129.9 ± 8.60 g
same,"Body weight after intervention, Day 7",[3]; [11],145.1 ± 9.24 g
same,"Body weight after intervention, Day 14",[3]; [11],173.7 ± 4.84 g
same,"Body weight after intervention, Day 21",[3]; [11],202.3 ± 9.57 g
same,"Body weight after intervention, Day 31",[3]; [11],240.2 ± 6.85 g
same,Body weight before intervention,[3]; koumine 3 mg/kg intragastric once daily,126.5 ± 7.92 g
same,"Body weight after intervention, Day 7",[3]; [12],148.7 ± 8.73 g
same,"Body weight after intervention, Day 14",[3]; [12],176.9 ± 3.86 g
same,"Body weight after intervention, Day 21",[3]; [12],205.1 ± 6.94 g
same,"Body weight after intervention, Day 31",[3]; [12],260.3 ± 11.79 g
same,Body weight before intervention,[3]; koumine 15 mg/kg intragastric once daily,127.8 ± 7.45 g
same,"Condition of rats (food intake, activity, fur, emaciation)","[3]; koumine 0.6, 3, 15 mg/kg intragastric once daily",can be improved in a dose dependent manner
same,Effect on body weight of type II collagen-induced arthritis rats (summary of Table 2),"[3]; koumine 0.6, 3, 15 mg/kg intragastric, robustness-promoting effect on high-dose group",antagonistic effect on body weight reducing
same,Effect on arthritis index (FIG. 7),[4],reduces arthritis index
same,"Effect on paw swelling, paw volume (FIG. 6)",[4],relieves the paw swelling
same,"Joint pathological change, X-ray images (FIG. 8)",[5],relieve the bone destruction of ankle joint
same,"Scores of pathologic change degree of ankle joints, HE staining (FIGS. 9 and 10)",[6],significantly decrease the scores of pathologic change degree of ankle joints
